What all share (type): physicochemical
The nature of data set [1]: Equilibrium solubility of Form A at room temperature in solvents and aqueous buffers. The settings on record: thermodynamic from solid, read-out: Solubility at R.T. As to the method:
In each case, the equilibrium solubility of Form A at room temperature was measured by placing the compound in excess into different solvents and stirring overnight at ambient room temperature, protected from light. Solubility in the following solvents and aqueous buffers was evaluated at room temperature: methanol, ethanol, benzyl alcohol, dimethyl sulfoxide, water for injection, bacteriostatic water (containing 0.9% benzyl alcohol), 5% dextrose, normal saline (0.9% NaCl), pH 1.1 (glycine HCl), pH 4.2 (glycine HCl), pH 7.1 (phosphate buffer), and pH 9.1 (glycine). Solubilities are reported to the nearest mg/mL unless otherwise stated.

Data set [2] can be described thus: Solubility of Form A at 37° C. under conditions that simulate the human GI tract (HPLC of filtrate). The settings on record: thermodynamic from solid, 37° C. overnight. The protocol:
[…] All solutions were stored overnight in a 37° C. oven, and then filtered through a Whatman 0.45 μm nylon syringe filter to remove insoluble material.

Data set [3] is described as follows: Water solubility of amorphous Compound 1. The settings on record: qualitative statement, no data given.

The structures appear in SMILES notation.

One may read the solubility as how much of the substance goes into solution per volume. With `C[N+]1(CC2CC2)CC[C@]23c4c5ccc(O)c4O[C@H]2C(=O)CC[C@@]3(O)[C@H]1C5.[Br-]` (stereo partly drawn) [Form A, (R)-N-methylnaltrexone bromide], the solubility in data set [1] (aqueous buffer, pH 4.2 (glycine HCl buffer)) is 73.8 mg/mL; in data set [1] (aqueous buffer, pH 7.1 (phosphate buffer)), 74.9 mg/mL; in data set [1] (aqueous buffer, pH 9.1 (glycine buffer)), 71.1 mg/mL; in data set [1] (dimethyl sulfoxide, organic solvent or mixture, Dimethylsulfoxide, stirred overnight), more than 170 mg/mL; in data set [1] (organic solvent or mixture, Benzyl alcohol, stirred overnight), 85.5 mg/mL; in data set [1] (organic solvent or mixture, Ethanol, stirred overnight) it was 6.1 mg/mL. In addition, the solubility in data set [1] (organic solvent or mixture, Methanol, stirred overnight) was 2.5 mg/mL; in data set [1] (saline or isotonic, 5% Dextrose, stirred overnight), 61.3 mg/mL; in data set [1] (saline or isotonic, Normal saline (0.9% NaCl), stirred overnight), 59.7 mg/mL; in data set [1] (simulated gastric fluid, 0.1N HCl), 76.6 mg/mL; in data set [1] (simulated gastric fluid, pH 1.1 (glycine HCl buffer)), 70.1 mg/mL; in data set [1] (Bacteriostatic water (0.9% benzyl alcohol), stirred overnight), 86.5 mg/mL. For the same compound, the solubility was 73.5 mg/mL in data set [1] (Water for injection, stirred overnight); 100 mg/mL in data set [2] (aqueous buffer, pH 4.5 (acetate buffer)); 101 mg/mL in data set [2] (aqueous buffer, pH 6.8 (phosphate buffer)); 101 mg/mL in data set [2] (aqueous buffer, pH 9.0 (borate buffer)); 101 mg/mL in data set [2] (pH 1, simulated gastric fluid, 0.1N HCl).

For `C[N+]1(CC2CC2)CC[C@]23c4c5ccc(O)c4O[C@H]2C(=O)CC[C@@]3(O)[C@H]1C5.[Br-]` (stereo partly drawn) [amorphous Compound 1, (R)-N-methylnaltrexone bromide], the water solubility result in data set [3] was “enhanced water solubility”.

The values are drawn from US9879024B2, “Crystal forms of (R)-N-methylnaltrexone bromide and uses thereof” (Progenics Pharmaceuticals, Inc., priority 2007, dated 2018).
